Experimental data from patent US20080058293A1, “Quinoline Derivates and Their Use in Therapy” (priority 2003, published 2008).
Counter-ions that a name gives are not always drawn.

| SMILES | melting point |
| --- | --- |
| C[C@H](CC(=O)Nc1c(Cl)ccc2nc(NCCNCCO)ccc12)c1ccccc1 (as salt: hydrochloride) [Example 9, (βR)-N-[6-Chloro-2-[[2-[(2-hydroxyethyl)amino]ethyl]amino]-5-quinolinyl]-β-methyl-benzenepropanamide, dihydrochloride] | 178 to 182 °C |
| N[C@H]1CCN(c2ccc3c(NC(=O)CCc4ccccc4Cl)c(Cl)ccc3n2)C1 [Example 18, N-[2-[(3S)-3-Amino-1-pyrrolidinyl]-6-chloro-5-quinolinyl]-2-chlorobenzenepropanamide] | 200 to 212 °C |
| CC(Cc1ccc(Cl)c(Cl)c1)C(=O)Nc1cccc2ncccc12 (stereo not drawn) [Example 8, 3,4-Dichloro-α-methyl-N-5-quinolinyl-benzenepropanamide] | 168 to 170 °C |
| C[C@H](CNC(=O)c1c(Cl)ccc2nc(N3CCC(C(=O)O)CC3)ccc12)c1ccccc1 [Example 29, 1-[6-Chloro-5-[[[(2S)-2-phenylpropyl]amino]carbonyl]-2-quinolinyl]-4-piperidinecarboxylic acid] | 150 to 153 °C |
| O=C(CCc1ccccc1Cl)Nc1c(Cl)ccc2nc(N3CC[C@H](NCCO)C3)ccc12 [Example 19, 2-Chloro-N-[6-chloro-2-[(3S)-3-[(2-hydroxyethyl)amino]-1-pyrrolidinyl]-5-quinolinyl]-benzenepropanamide] | 180 to 182 °C |
| O=C(NCCc1ccccc1)c1c(Cl)ccc2nc(N3CCC(C(=O)O)CC3)ccc12 [Example 26, 1-[6-Chloro-5-[[(2-phenylethyl)amino]carbonyl]-2-quinolinyl]-4-piperidinecarboxylic acid] | 260 to 262 °C |
| N[C@H]1CCN(c2ccc3c(C(=O)NCCc4ccccc4Cl)c(Cl)ccc3n2)C1 [Example 21, 2-[(3S)-3-Amino-1-pyrrolidinyl]-6-chloro-N-[2-(2-chlorophenyl)ethyl]-5-quinolinecarboxamide] | 196 to 198 °C |
| O=C(NCCc1ccccc1Cl)c1c(Cl)ccc2nc(N3CCC(C(=O)O)CC3)ccc12 [Example 24, 1-[6-Chloro-5-[[[2-(2-chlorophenyl)ethyl]amino]carbonyl]-2-quinolinyl]-4-piperidinecarboxylic acid] | 250 to 253 °C |
| CNCCCN(C)c1ccc2c(NC(=O)C[C@@H](C)c3ccccc3)c(Cl)ccc2n1 (as salt: trifluoroacetate) [Example 3, (βR)-N-[6-Chloro-2-[methyl[3-(methylamino)propyl]amino]-5-quinolinyl]-β-methyl-benzenepropanamide, ditrifluoroacetate] | 159 to 162 °C |
| C[C@H](CC(=O)Nc1c(Cl)ccc2nc(N3CC[C@H](NCCCO)C3)ccc12)c1ccccc1 [Example 15, (βR)-N-[6-Chloro-2-[(3S)-3-[(3-hydroxypropyl)amino]-1-pyrrolidinyl]-5-quinolinyl]-β-methyl-benzenepropanamide] | 155 to 158 °C |
| C[C@H](CC(=O)Nc1c(Cl)ccc2nc(N3CC[C@H](N)C3)ccc12)c1ccccc1 [Example 13, (βR)-N-[2-[(3S)-3-Amino-1-pyrrolidinyl]-6-chloro-5-quinolinyl]-β-methyl-benzenepropanamide] | 204 to 207 °C |
| O=C(NCC(c1ccccc1)c1ccccc1)c1c(Cl)ccc2nc(N3CCC(C(=O)O)CC3)ccc12 (as salt: acetate) [Example 25, 1-[6-Chloro-5-[[(2,2-diphenylethyl)amino]carbonyl]-2-quinolinyl]-4-piperidinecarboxylic acid, acetate] | 180 to 185 °C |
| C[C@H](CC(=O)Nc1c(Cl)ccc2nc(N3CCNCC3)ccc12)c1ccccc1 [Example 4, (βR)-N-[6-Chloro-2-(1-piperazinyl)-5-quinolinyl]-β-methyl-benzenepropanamide] | 194 to 196 °C |
| O=C(CCc1ccccc1)Nc1c(Cl)ccc2nc(N3CCNCC3)ccc12 [Example 17, N-[6-Chloro-2-(1-piperazinyl)-5-quinolinyl]-benzenepropanamide] | 231 to 234 °C |
| O=C(NCCc1c(Cl)cccc1Cl)c1c(Cl)ccc2nc(N3CCC(C(=O)O)CC3)ccc12 [Example 23, 1-[6-Chloro-5-[[[2-(2,6-dichlorophenyl)ethyl]amino]carbonyl]-2-quinolinyl]-4-piperidinecarboxylic acid] | 262 to 264 °C |
| O=C(CCc1ccc(Cl)cc1)Nc1c(Cl)ccc2nc(N3CCNCC3)ccc12 (as salt: hydrochloride) [Example 12, 4-Chloro-N-[6-chloro-2-(1-piperazinyl)-5-quinolinyl]-benzenepropanamide, dihydrochloride] | 183 to 188 °C |
| Cc1ccc2c(C(=O)NC[C@H](C)c3ccccc3)c(Cl)ccc2n1 (as salt: hydrochloride) [Example 1, 6-Chloro-2-methyl-N-[(2R)-2-phenylpropyl]-5-quinolinecarboxamide, hydrochloride] | 190 to 192 °C |
| C[C@H](CC(=O)Nc1c(Cl)ccc2nc(N3CC[C@H](NCCO)C3)ccc12)c1ccccc1 (as salt: hydrochloride) [Example 16, (βR)-N-[6-Chloro-2-[(3S)-3-[(2-hydroxyethyl)amino]-1-pyrrolidinyl]-5-quinolinyl]-β-methyl-benzenepropanamide, dihydrochloride] | 177 to 182 °C |
| O=C(NCCc1ccc(Cl)cc1)c1c(Cl)ccc2nc(N3CCC(C(=O)O)CC3)ccc12 [Example 31, 1-[6-Chloro-5-[[[2-(4-chlorophenyl)ethyl]amino]carbonyl]-2-quinolinyl]-4-piperidinecarboxylic acid] | 231 to 234 °C |
| O=C(CCc1ccc(Cl)cc1Cl)Nc1c(Cl)ccc2nc(N3CCNCC3)ccc12 (as salt: hydrochloride) [Example 11, 2,4-Dichloro-N-[6-chloro-2-(1-piperazinyl)-5-quinolinyl]-benzenepropanamide, dihydrochloride] | 200 °C (dec.) |
| C[C@H](CC(=O)Nc1c(Cl)ccc2nc(CCCNCCCO)ccc12)c1ccccc1 [Example 7, (βR)-N-[6-Chloro-2-[3-[(3-hydroxypropyl)amino]propyl]-5-quinolinyl]-β-methyl-benzenepropanamide] | 118 to 120 °C |
| Cc1ccc2c(C(=O)NC[C@@H](C)c3ccccc3)c(Cl)ccc2n1 (as salt: hydrochloride) [Example 2, 6-Chloro-2-methyl-N-[(2S)-2-phenylpropyl]-5-quinolinecarboxamide, hydrochloride] | 182 to 185 °C |
| O=C(NCCc1ccccc1F)c1c(Cl)ccc2nc(N3CCC(C(=O)O)CC3)ccc12 [Example 27, 1-[6-Chloro-5-[[[2-(2-fluorophenyl)ethyl]amino]carbonyl]-2-quinolinyl]-4-piperidinecarboxylic acid] | 270 to 272 °C |
| O=C(NCCc1ccccc1Cl)c1c(Cl)ccc2nc(N3CC[C@H](NCCO)C3)ccc12 [Example 22, 6-Chloro-N-[2-(2-chlorophenyl)ethyl]-2-[(3S)-3-[(2-hydroxyethyl)amino]-1-pyrrolidinyl]-5-quinolinecarboxamide] | 170 to 172 °C |
| Cc1ccccc1CCNC(=O)c1c(Cl)ccc2nc(N3CCC(C(=O)O)CC3)ccc12 [Example 28, 1-[6-Chloro-5-[[[2-(2-methylphenyl)ethyl]amino]carbonyl]-2-quinolinyl]-4-piperidinecarboxylic acid] | 237 to 241 °C |
